Earlier results in US20140370149A1, “METHODS FOR USING REBAUDIOSIDE C AS A FLAVOR ENHANCER” (International Flavors & Fragrances Inc., priority 2011, published 2014).

Details: sweetness relative to sucrose

For `C=C1C[C@@]23CC[C@H]4[C@@](C)(CCC[C@@]4(C)C(=O)O[C@@H]4O[C@H](CO)[C@@H](O)[C@H](O)[C@H]4O)[C@@H]2CC[C@]1(O[C@@H]1O[C@H](CO)[C@@H](O)[C@H](O)[C@H]1O[C@@H]1O[C@@H](C)[C@H](O)[C@@H](O)[C@H]1O)C3` [dulcoside A], the “times sweeter than sucrose” value is listed as 30 times.
